Data taken from patent publication US4795639A, “Potentiating formulations” (priority 1971, dated 1989).
Values joined by “and” are separate entries in the source; they are usually repeats but may differ in a detail not shown here. Identical values can stand only once.

Experiments:
[1] = test system: E. tenella; test: coccidiosis screening test in chicks, E. tenella; format: in vivo, Eimeria tenella; conditions: Expt. 4; 100,000 oocysts; p.p.m SQX/DV/DMHP: b374 10/-/-; b375 -/20/-; b376 -/-/10; b377 10/-/10; b378 -/20/10; b379 10/20/-; b381 10/20/10; b382 20/-/-; b383 -/40/-; b384 -/-/20; b385 20/-/20; b386 -/40/20; b387 20/40/-; b389 20/40/20
Protocol: "Screening tests" were performed to establish the effectiveness of the compounds of formula (I) both alone and in combination with a competitor and or an inhibitor and to determine the most useful levels of relative concentrations of each component in combatting or suppressing coccidiosis.
Groups of Ranger cockerels, housed in small, heated cages with wire floors situated in enironmentally controlled isolation rooms, were infected orally with sporulated oocysts of the Eimeria spp such as E. tenella or E. acervulina. The appropriate test compound(s), (DMHP, sulphaquinoxaline (SQX) or diaveridine (DV) or any combination of these) were incorporated in a small quantity of specially formulated laboratory ration deficient in Vitamin K (`L.D.4 mash`), as a 1/10 pre-mix, which was then mixed into the diet on a horizontal roller drum mixed and administered to groups of chicks one day prior to infection, leaving some groups as untreated controls. Administration was continued for several days, for example about 8 or 9 days.
The amount of damage, marked by lesions in the caecal walls was investigated in those chicks that died during the course of the experiment, and in those sacrificed on the final day of administration, and compared with the untreated controls as a basis for the determination of therapeutic activity. In addition the mortality rate and the percentage weight gains in the various groups were assessed. A marked or definite effect of the administered drug could be recognised even when the mortality rates were similar or identical, since the increase in the weight gains and the reduction of the extension of lesions indicated by the lesion score, is characteristic of an improvement. […]
4:1 sulphaquinoxaline/diaveridine mixtures at levels of 80/20, 60/15, 40/10 and 20/5 p.p.m. were administered alone and in combination with a wide range of low concentrations of DMHP to the birds.
The results of these screening tests are set forth in Table 4 showing the concentration of the various component compounds in parts per million of the bird's diet, the mortality from coccidiosis, the percentage weight gain, the lesion score the oocyst output, and the activity. The caecal lesion index is calculated using a score system where: […]
In addition a score of 4 is assigned to any bird that dies of coccidiosis during the experiment. [formula] In the activity column, +++, ++, +, ± and - relate respectively to very high, high, slight, doubtful and nil activity of the test drug against the Eimeria infection.

[2] = test system: Pasteurella multocida; test: Pasteurella multocida infection in chicks; format: in vivo
[3] = test system: Pseudomonas aeruginosa; test: zone inhibition, pteridine in agar, drugs in well; format: cell-based; conditions: for complete zone inhibition, SMX (300) / zone including partial inhibition, SMX (300): SMX 300 μg/ml; for zone including partial inhibition, TMP (30): TMP 30 μg/ml; for complete zone inhibition, TMP + SMX (5) (100) / zone including partial inhibition, TMP + SMX (5) (100): TMP 5 + SMX 100 μg/ml
Protocol: (§1) The pteridine was included in a soya peptone medium of low thymidine content (Wellcotest Sensitivity Test Agar) contained in a Petri-dish and the other component(s) added to the well resulting from the removal of a small plug from the medium. The surface of the medium was inoculated with the test organism and then incubated.

[4] = test system: Staphylococcus aureus; test: zone inhibition, pteridine in agar, drugs in well; format: cell-based; conditions: for complete zone inhibition, SMX (300) / zone including partial inhibition, SMX (300): SMX 300 μg/ml; for complete zone inhibition, TMP + SMX (5) (100) / zone including partial inhibition, TMP + SMX (5) (100): TMP 5 + SMX 100 μg/ml
Protocol: as §1

[5] = biological target: T1, hydroxymethyldihydropteridine pyrophosphokinase (HMPPS) (Escherichia coli, UniProt P26281); test: HMPPS assay: transfer of terminal phosphate of ATP-γ-P^32 to Pt; format: biochemical, E. coli; conditions: read-out: IC50
T1 construct: obtained from an extract of E. coli; endogenous in cells; host or cells: E. coli extract; HMPPS separated from synthetase on Sephadex G-100 (method of Richey and Brown 1969)
T1 sequence (P26281 whole entry): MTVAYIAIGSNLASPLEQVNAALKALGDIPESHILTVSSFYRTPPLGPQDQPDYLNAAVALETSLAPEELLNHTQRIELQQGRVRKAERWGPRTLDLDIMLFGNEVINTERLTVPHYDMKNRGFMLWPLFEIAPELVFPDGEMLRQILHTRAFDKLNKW
Source text: (a) An assay for HMPPS was developed in which the transfer of the terminal phosphate of ATP-γ-P^32 to Pt could be monitored and correlated with the amount of inhibition of HMPPS by the compound under test.
The compound under test was incorporated into various formulations comprising metabolites and enzymes contained in test tubes, as indicated in TABLE 1.
II--a source of HMMP S, obtained from an extract of E. coli and separated from `synthetase` on Sephadex G-100, according to the method of Richey and Brown in J. Biol. Chem. 244, 1582-1592 (1969)
Control tubes 10 to 12 include a source of both HMPPS and synthetase, unlabelled ATP, 0.1M MgCl2.6H2 O and labelled pAB.
Tubes 1 to 9 containing the amounts of components shown in the Table, were filled up to 200 μl with distilled water, incubated for 60 minutes at 37° C. and then chilled on ice. Dextrose (20 μl containing 72.1 mg/ml) and hexokinase (5 μl containing 2000 units/ml) were added to the solution, which was then allowed to stand at room temperature for 15 minutes. `Darco-G-60` (Registered Trade Mark) (10 mg) was added to each tube and the contents mixed periodically for 10 minutes. The charcoal was removed through a "Millipore AP 250 2200" (Registered Trade Mark) filter and the filter was washed with three 10 ml portions of cold water. The Charcoal and the filter were then radioactively counted.
The radioactive count from the contents of tubes 2 and 3 was taken as the maximum count, since these tubes contained no test compound and thus gave 0% enzyme inhibition. The percentage inhibition produced by the contents of the remaining tubes could then be calculated by relating their radioactive count to the maximum, as determined above.

[6] = test system: coccidiosis; test: potentiating effect against coccidiosis; format: in vivo; conditions: replacement of DMHP
[7] = pteridine 3 μg/ml, TMP 30 μg/ml
[8] = pteridine 10 μg/ml, TMP 30 μg/ml

## COc1ccc(Cc2cnc(N)nc2N)cc1OC [DV, 2,4-diamino-5-(3',4'-dimethoxybenzyl) pyrimidine]
[1]
  Mortality from Coccidiosis: 8/10 and 8/9
[2]; Example 3 Experiment 1
  activity alone against Pasteurella multocida: low activity alone
[2]; Table 5, doses as in E44
  Average Weight of surviving chicks: 140.0 gm
  Cumulative Mortality on day 2: 2 and 1
  Cumulative Mortality on day 5: 6 and 5
  Cumulative Mortality on day 6: 6 and 8
  Cumulative Mortality on day 7: 7 and 9
  Cumulative Mortality on day 8: 7 and 10
  Cumulative Mortality on day 9: 7
  Cumulative Mortality on day 10: 7

## CCC1(CC)Nc2nc(N)nc(O)c2N=C1CO [R = CH2 OH R = R^2 = Et, 2-amino-4-hydroxy-6-hydroxymethyl-7,7-diethyl-7,8-dihydropteridine]
[3]; pteridine 3 μg/ml
  complete zone inhibition, SMX (300): 9.0 centimeters
  zone including partial inhibition, SMX (300): 13.0 centimeters
  zone including partial inhibition, TMP (30): 3.0 centimeters
  complete zone inhibition, TMP + SMX (5) (100): 7.0 centimeters
  zone including partial inhibition, TMP + SMX (5) (100): 10.0 centimeters
[3]; pteridine 10 μg/ml
  complete zone inhibition, SMX (300): 13 centimeters
  zone including partial inhibition, SMX (300): 16.0 centimeters
  zone including partial inhibition, TMP (30): 5.0 centimeters
  complete zone inhibition, TMP + SMX (5) (100): 8.0 centimeters
  zone including partial inhibition, TMP + SMX (5) (100): 12.0 centimeters
[4]; compared with DMHP
  synergism with TMP and SMX against Staphylococcus aureus: slightly more active than DMHP
[4]; pteridine 3 μg/ml
  complete zone inhibition, SMX (300): 6.5 centimeters
  zone including partial inhibition, SMX (300): 12.5 centimeters
  complete zone inhibition, TMP + SMX (5) (100): 10.5 centimeters
  zone including partial inhibition, TMP + SMX (5) (100): 12.5 centimeters
[4]; [7]
  complete zone inhibition, TMP (30): 8.5 centimeters
  zone including partial inhibition, TMP (30): 10.5 centimeters
[4]; pteridine 10 μg/ml
  complete zone inhibition, SMX (300): 10.5 centimeters
  zone including partial inhibition, SMX (300): 14.0 centimeters
  complete zone inhibition, TMP + SMX (5) (100): 11.0 centimeters
  zone including partial inhibition, TMP + SMX (5) (100): 14.5 centimeters
[4]; [8]
  complete zone inhibition, TMP (30): 10.5 centimeters
  zone including partial inhibition, TMP (30): 13.0 centimeters
[4]; pteridine 30 μg/ml in medium, TMP 30 μg/ml in well, about 6× magnification
  complete zone inhibition, TMP (30): 12.5 centimeters
[4]; pteridine 30 μg/ml
  complete zone inhibition, SMX (300): 12.5 centimeters
  zone including partial inhibition, SMX (300): 17.0 centimeters
  complete zone inhibition, TMP + SMX (5) (100): 12.5 centimeters
  zone including partial inhibition, TMP + SMX (5) (100): 17.0 centimeters
[4]; pteridine 30 μg/ml, TMP 30 μg/ml
  zone including partial inhibition, TMP (30): 17.0 centimeters

## CC1=Nc2c(O)nc(N)nc2NC1(C)C [R=Me, R^1=Me, R^2=Me, 2-Amino-4-hydroxy-6-methyl-7,7-dimethyl-7,8-dihydropteridine]
[5]
  IC50: 75 µM
[6]
  potentiating effect against coccidiosis: noticeable, athough less marked potentiating effect
